# In a melting point compilation (Tetko et al.):
row,SMILES,melting point
1,Cc1cc(C)c2cc(C)ccc2c1,12 °C
2,CC(C)c1cc(C(=O)O)c(O)c(C(C)C)c1,117 °C
3,CN(C)Cc1c(O)c(Br)c(C(=O)O)c(Br)c1O,208 °C
4,Cc1cccc(NC=C2C(=O)NN=C2c2c(O)c3ccccc3n(C)c2=O)c1,264 °C
5,S=C1SCCS1,35 °C
6,N#Cc1ccccc1OCC(O)CNCCNC(=O)Cc1ccc(O)cc1 (centres undefined),119 °C
7,Cc1c(O)ncnc1Cl,202 °C
8,N#CC1(c2ccc(Cl)cc2)CCCCC1,88 to 92 °C
9,O=C1/C(=C/c2ccccc2O)SC(=S)N1CN1CCCCC1,166 °C
10,Oc1cc(Br)cc(Br)c1,81 °C
11,Cc1onc(-c2c(F)cccc2Cl)c1C#N,78 to 81 °C
12,CNC1=C(c2cccc(C(F)(F)F)c2)C(=O)C(c2ccccc2)O1 (centres undefined),148 °C
13,CCCCc1ccc(NC(=O)Oc2ccc(OC)cc2)cc1,143 °C
14,CC1=NC(C)CNc2c1c(=O)n(-c1ccccc1)c1ccccc21 (centres undefined),273 °C
15,CCCCCC=CC(=O)O,5 to 6 °C
16,CC1=CCC(C(=O)O)C1(C)C (centres undefined),40.5 °C
17,O=C(Cl)c1cn(S(=O)(=O)c2ccccc2)c2ccccc12,144 °C
18,COc1cc(Br)c(CC#N)cc1OC,87 to 89 °C
19,Cc1nc2ccc(I)cc2s1,134 to 137 °C
20,OCc1cnc(S)n1Cc1ccccc1,238 to 240 °C
21,COC(=O)CCCC(=O)OC,-37 °C
22,Nc1c(C(F)(F)F)cc(Cl)nc1Cl,50 to 51 °C
23,CC12CCC3C(CCC4CC(C#N)CCC43C)C1CCC2=O (centres undefined),164 °C
24,O=C1NC(=S)NC(=O)C1=NNc1ccccc1,290 °C
25,CN(C)S(=O)(=O)Cl,-13 °C
26,C=C1C2CC(CC2NS(=O)(=O)c2ccc(C)cc2)C1(C)C (centres undefined),110 to 114 °C

row,SMILES,melting point
1,CC(C)C1CCC(Cc2ccc(Cl)cc2)C1(O)Cn1cncn1 (centres undefined),89 °C
2,Cc1nc(C)c(CO)s1,56 to 57 °C
3,CCSCc1ccccc1OC(=O)NC,33.4 °C
4,Nc1cccnc1Br,77 °C
5,O=Cc1ccc2c(c1[N+](=O)[O-])C(=O)c1c(Cl)c(Cl)c(Cl)c(Cl)c1C2=O,265 to 268 °C
6,CC(=O)OCC(OC(C)=O)C(OC(C)=O)C(OC(C)=O)C(OC(C)=O)C(OC(C)=O)OC(C)=O (centres undefined),119 °C
7,COc1ccc(Br)c2c1C(=O)C2,74 °C
8,CCOC(=O)Cc1ccc(Br)cc1,30 °C
9,O=C(O)c1ccc(O)cc1C(=O)O,191 to 194 °C
10,CC1(C)CNC(=NN=C(C=Cc2ccc(C(F)(F)F)cc2)C=Cc2ccc(C(F)(F)F)cc2)NC1,188 °C
11,O=Cc1ccc2c(Br)cccc2c1,78 °C
12,CC(=O)Nc1ccc(C(F)(F)F)cc1Br,144 to 146 °C
13,CC(Oc1ccc(Cl)cc1Cl)C(=O)Nc1ccc2nc(SCc3ccccc3)sc2c1 (centres undefined),169 °C
14,N#CCc1ccc2ccccc2c1,78 to 88 °C
15,O=C(NC1CCN(Cc2ccccc2)C1)C(F)(F)F (centres undefined),71 °C
16,CCC(=O)OC1(C(=O)CCl)C(C)CC2C3CCC4=CC(=O)C=CC4(C)C3(F)C(O)CC21C (centres undefined),196 °C
17,C1=CC2C3C=CC(C3)C2C1 (centres undefined),33.6 °C
18,O=C(O)Cc1c[nH]c2ccc(O)cc12,162 to 165 °C
19,O=[N+]([O-])c1ccccc1C(Cl)C(Cl)c1ccccn1 (centres undefined),144 °C
20,Brc1ccc(Br)s1,-6 °C
21,CCOC(=O)/C(C#N)=C(/SC)N(C)C,90 to 94 °C
22,CC(C)(C)C1=NNC(=O)C1,210 °C
23,CC(C)(C)CC(C)(C)S,-74 °C
24,CCOC(=O)c1nc(C(Cl)(Cl)Cl)n(-c2ccc(Cl)cc2Cl)n1,110 °C
25,Cc1cc(Br)cc(C)c1I,42 to 44 °C
26,O=C(Oc1c(Cl)cc(Cl)cc1Cl)C(=O)Oc1c(Cl)cc(Cl)cc1Cl,188 to 192 °C

row,SMILES,melting point
1,O=C(c1ccc(F)cc1)N1CCCCC1,60 to 62 °C
2,O=C(O)c1ccc(Cn2cnc3ccccc32)cc1,260 to 262 °C
3,C=C(C)C=CC(=C)C,-9 °C
4,O=C(O)c1ccccc1O,157 °C
5,CCCCCCCCCCCCCCCCCC(C)C,18 °C
6,Oc1ccc(Cl)cc1Sc1cc(Cl)ccc1O,174 °C
7,CCC1(O)CCC2(C)C(CCC3C2CCC2(C)C3CCC23OCCO3)C1 (centres undefined),127 °C
8,COc1ccc([N+](=O)[O-])c(Cl)n1,78 to 80 °C
9,Cc1nccn1-c1ccccc1CN,48 to 48.5 °C
10,COc1ccc(OC)c(C(=O)O)c1,77 °C
11,C/C(=N\CC(O)CO)c1c(O)c2ccccc2n(-c2ccccc2)c1=O (centres undefined),217 to 218 °C
12,COc1ccc2c3c(n(C)c2c1)CCCC3,96 °C
13,CC1=C(C(=O)OC(C)C)C(c2cccc([N+](=O)[O-])c2)NC(=S)N1 (centres undefined),225 °C
14,CC1=C(C#N)C(c2cccc([N+](=O)[O-])c2)C(C(=O)OC(C)(C)C)=C(C)N1 (centres undefined),61 °C
15,Cc1[nH]nc(C(F)(F)C(F)(F)C(F)(F)F)c1[N+](=O)[O-],97 to 98 °C
16,N#CC1(O)C(C2COC3(CCCCC3)O2)OC2OC3(CCCCC3)OC21 (centres undefined),107 to 113 °C
17,CCS(=O)(=O)c1cccnc1S(=O)(=O)NC(=O)Nc1nc(OC)cc(OC)n1,177 °C
18,Cc1cc([N+](=O)[O-])cc(Br)c1N,177 to 183 °C
19,Clc1ccc(CBr)cc1,49 °C
20,Cc1nn(C)c2sc(CO)cc12,133 to 135 °C
21,Cc1cccc(CO)c1[N+](=O)[O-],42 to 48 °C
22,BrC1C2CC3CC(C2)CC1C3 (centres undefined),139 °C
23,O=[N+]([O-])c1ccccc1/C=C(/Cl)c1ccccn1,60.5 to 61 °C
24,O=[N+]([O-])c1ccc(C=NN(c2ccccc2)P(=O)(N2CC2)N2CC2)cc1,150 °C
25,CS(=O)(=O)OCCCNCCCOS(C)(=O)=O,116 °C
26,CC1(C)C2CC[C@]1(CS(=O)(=O)O)C(=O)C2,200 °C

row,SMILES,melting point
1,CC(C)(C)C(=O)OCOc1ccccc1C(N)=O,95 °C
2,O=C(O)C(=O)Nc1ccccc1,150 °C
3,Cc1n[nH]cc1[N+](=O)[O-],133 °C
4,COc1cc(C(=O)c2ccc(Cl)cc2)cc(OC)c1OCCN1CCOCC1,91.5 °C
5,O=C(O)/C=C/c1cc2c(cc1CC(=O)O)NC(=O)CC2,234 °C
6,O=C(O)C=Cc1cccc(C=CC(=O)O)c1,280 °C
7,CC(=O)OC1CC2C(C)C(=O)C3(C(O)CC4C(C)(C)CCC(OC(C)=O)C4(C)C13)C2O (centres undefined),246 °C
8,N#CCc1ccc(-c2ccccc2)cc1,95 °C
9,OC1CCC(Cl)CC1 (centres undefined),82.5 °C
10,Cn1c(S)nnc1-c1ccc(Cl)cc1Cl,175 to 177 °C
11,O=C(O)C1CCNCC1,336 °C
12,CCCCCCCCCC(=O)OC(=O)CCCCCCCCC,24.7 °C
13,Cc1oc(-c2ccccc2)cc1C(=O)O,183 °C
14,Cc1ccc(C=C2C(N)=NC(=O)N=C2N)cc1,172 to 173 °C
15,Cc1ccc2ncccc2c1,-22 °C
16,FC(F)(F)c1ccc(=S)[nH]c1,159 to 160 °C
17,CCCCCCCCCC(C)CC (centres undefined),-53 °C
18,Cc1cc(-c2onc(C)c2C(=O)O)no1,167 °C
19,CC(C)CC1=CC(=Cc2ccc(-c3ccc([N+](=O)[O-])cc3)o2)C(=O)O1,162 to 163 °C
20,Cc1c2ccccc2c(C)c2ccccc12,183 °C
21,Cc1cc(C(=O)O)n(C)n1,209 to 211 °C
22,OC1CCCCCCC1,25.1 °C
23,C/C=C/Br,-77 °C
24,CC(C)OC(=O)C1(S(=O)(=O)c2ccc(Cl)cc2)CCCC1,92.5 °C
25,Cc1nccc(-c2cccc(N)c2)n1,108 to 109 °C
26,Nc1cccc2c(O)cccc12,189 °C

row,SMILES,melting point
1,CCc1cc(C)cc(O)c1,51.6 °C
2,Fc1ccc(I)cn1,32 °C
3,CCCCOCCOCCOCCO,-30 °C
4,Cc1ccc2c(O)c(-c3ccccc3)c(=O)[nH]c2c1,300 °C
5,CSc1nc(N)c(C(=O)c2ccc(Cl)cc2)s1,148 to 150 °C
6,CC(C)CC(=O)NC(C(=O)NC(C(=O)NC(CC(C)C)C(O)CC(=O)NC(C)C(=O)NC(CC(C)C)C(O)CC(=O)O)C(C)C)C(C)C (centres undefined),233 °C
7,COc1ccc(-c2cc(N3CCCC3)cc3c2c(=O)n(-c2ccccc2)n3C)cc1,217 °C
8,CC12CCC=C1C1CCC3=CC(=O)CCC3(C)C1CC2 (centres undefined),117 °C
9,Nc1cccc(Cc2cccc(N)c2)c1,81.5 °C
10,COc1cc2c(cc1OC)C1CC(=O)C(CC(C)C)CN1CC2 (centres undefined),128 °C
11,FC(F)(F)c1cccc(-c2noc(-c3cc(-c4ccccc4)c(C(F)(F)F)s3)n2)c1,95 to 96 °C
12,O=c1c(N2CCCC2)c(N2CCOCC2)c1=O,251 to 254 °C
13,O=C(O)c1cc([N+](=O)[O-])c(Cl)c([N+](=O)[O-])c1,161 °C
14,O=c1n(CCCN2CCN(c3cccc(Cl)c3)CC2)nc2ccccn12,87 °C
15,CC(C)(C)OC(=O)N1CCN(Cc2cccc(N)c2)CC1,107 to 108 °C
16,CC(CC(=O)c1ccccc1)c1ccccc1 (centres undefined),70 °C
17,Oc1cc(O)cc(Cl)c1,118 °C
18,C=C[Si]12OCCN(CCO1)CCO2,163 to 165 °C
19,CC1=NN(CN2CCOCC2)C(=O)/C1=N\Nc1cc(Cl)c(Cl)cc1Cl,175 °C
20,CN(C)C(=S)NN,149 to 153 °C
21,CCCCCCC(=O)CC,-8 °C
22,CC(=O)c1ccc(C2CCCCC2)cc1,68 °C
23,CCOC(=O)C(CC)c1ccc(C)cc1 (centres undefined),130 °C
24,CC1CCC(C(C)C)C(OC(=O)C(=Cc2ccccc2)C(=O)c2ccccc2)C1 (centres undefined),65 °C
25,CNC1CCC(c2ccc(Cl)c(Cl)c2)c2ccccc21 (centres undefined),244 °C
